We go through six compounds from ChEMBL document CHEMBL5550171, “Poly (ADP-ribose) polymerase (PARP) inhibitors as anticancer agents: An outlook on clinical progress, synthetic strategies, biological activity, and structure-activity relationship” (Eur J Med Chem, 2024).

Data set [1] addresses Poly [ADP-ribose] polymerase 1 (Homo sapiens, UniProt P09874). Nature of the data set: Inhibition of human PARP1.
The subject of data set [2] is MDA-MB-436. Nature of the data set: Antiproliferative activity against human MDA-MB-436 cells. It is filed as functional, cell-based.
A short description of data set [3]: Cytotoxicity against human WI-38 cells assessed as reduction in cell viability incubated for 48 hrs by MTT assay. It is filed as toxicity, cell-based. (Tetrazolium assays rely on reduction of a dye to a coloured formazan, in cell work by metabolically active cells.)
The target of data set [4] is Protein mono-ADP-ribosyltransferase PARP3 (Homo sapiens, UniProt Q9Y6F1). Nature of the data set: Inhibition of PARP3 (unknown origin).
Sequence of Protein mono-ADP-ribosyltransferase PARP3 (Q9Y6F1 whole entry): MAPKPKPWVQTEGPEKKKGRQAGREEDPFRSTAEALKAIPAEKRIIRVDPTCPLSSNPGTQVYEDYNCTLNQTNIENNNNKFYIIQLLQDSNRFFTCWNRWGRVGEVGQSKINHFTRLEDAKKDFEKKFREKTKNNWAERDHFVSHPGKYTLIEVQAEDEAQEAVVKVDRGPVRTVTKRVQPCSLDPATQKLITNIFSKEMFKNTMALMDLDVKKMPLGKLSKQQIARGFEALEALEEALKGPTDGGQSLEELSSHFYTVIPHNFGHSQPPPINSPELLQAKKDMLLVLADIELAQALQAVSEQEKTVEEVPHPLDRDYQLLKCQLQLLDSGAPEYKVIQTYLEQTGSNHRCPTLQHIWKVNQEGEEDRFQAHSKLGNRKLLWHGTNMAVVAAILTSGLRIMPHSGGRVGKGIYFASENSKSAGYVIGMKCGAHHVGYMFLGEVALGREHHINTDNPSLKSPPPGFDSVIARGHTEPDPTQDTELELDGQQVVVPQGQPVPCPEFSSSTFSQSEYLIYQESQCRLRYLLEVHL
Data set [5] relates to MDA-MB-231. The experiment in a line: Cytotoxicity against human MDA-MB-231 cells assessed as reduction in cell viability measured for 48 hrs by MTT assay. It is filed as functional, cell-based. The note with it: MDA-MB-231, 48 h.
In data set [6] the test system is MCF7. Nature of the data set: Cytotoxicity against human MCF7 cells assessed as reduction in cell viability measured for 48 hrs by MTT assay. Format: functional, cell-based. Conditions: MCF7, 48 h.
For data set [7], the system named is Panel NCI-60 (60 carcinoma cell lines). The experiment in a line: Cytotoxicity against human Panel NCI-60 (60 carcinoma cell lines). It is filed as functional, cell-based.
Data set [8] has as its system A549. The experiment in a line: Antiproliferative activity against human A549 cells assessed as reduction in cell growth measured for 72 hrs by MTT assay. Format: functional, cell-based. The note with it: A549, 72 h.
In data set [9] the test system is A549. Nature of the data set: Induction of apoptosis in human A549 cells at 1 uM incubated for 48 hrs by Annexin V-FITC/PI staining based flow cytometry analysis relative to control. It is filed as functional. Background: In flow cytometry, cells or beads pass a laser one at a time.
For data set [10], the system named is A549. Nature of the data set: Induction of apoptosis in human A549 cells at 2 uM incubated for 48 hrs by Annexin V-FITC/PI staining based flow cytometry analysis relative to control. It is filed as functional.
Data set [11] deals with A549. The experiment in a line: Induction of apoptosis in human A549 cells at 4 uM incubated for 48 hrs by Annexin V-FITC/PI staining based flow cytometry analysis relative to control. Format: functional.
In data set [12] the target is T1, Protein cereblon/Poly [ADP-ribose] polymerase 1 (Homo sapiens, UniProt P09874+Q96SW2). Nature of the data set: PROTAC activity at CRBN/PARP1 in human MDA-MB-231 cells assessed as induction of PARP1 degradation at 0.1 uM relative to control. Format: cell-based.
Target sequence in this assay (P09874 2-1014 limits assumed): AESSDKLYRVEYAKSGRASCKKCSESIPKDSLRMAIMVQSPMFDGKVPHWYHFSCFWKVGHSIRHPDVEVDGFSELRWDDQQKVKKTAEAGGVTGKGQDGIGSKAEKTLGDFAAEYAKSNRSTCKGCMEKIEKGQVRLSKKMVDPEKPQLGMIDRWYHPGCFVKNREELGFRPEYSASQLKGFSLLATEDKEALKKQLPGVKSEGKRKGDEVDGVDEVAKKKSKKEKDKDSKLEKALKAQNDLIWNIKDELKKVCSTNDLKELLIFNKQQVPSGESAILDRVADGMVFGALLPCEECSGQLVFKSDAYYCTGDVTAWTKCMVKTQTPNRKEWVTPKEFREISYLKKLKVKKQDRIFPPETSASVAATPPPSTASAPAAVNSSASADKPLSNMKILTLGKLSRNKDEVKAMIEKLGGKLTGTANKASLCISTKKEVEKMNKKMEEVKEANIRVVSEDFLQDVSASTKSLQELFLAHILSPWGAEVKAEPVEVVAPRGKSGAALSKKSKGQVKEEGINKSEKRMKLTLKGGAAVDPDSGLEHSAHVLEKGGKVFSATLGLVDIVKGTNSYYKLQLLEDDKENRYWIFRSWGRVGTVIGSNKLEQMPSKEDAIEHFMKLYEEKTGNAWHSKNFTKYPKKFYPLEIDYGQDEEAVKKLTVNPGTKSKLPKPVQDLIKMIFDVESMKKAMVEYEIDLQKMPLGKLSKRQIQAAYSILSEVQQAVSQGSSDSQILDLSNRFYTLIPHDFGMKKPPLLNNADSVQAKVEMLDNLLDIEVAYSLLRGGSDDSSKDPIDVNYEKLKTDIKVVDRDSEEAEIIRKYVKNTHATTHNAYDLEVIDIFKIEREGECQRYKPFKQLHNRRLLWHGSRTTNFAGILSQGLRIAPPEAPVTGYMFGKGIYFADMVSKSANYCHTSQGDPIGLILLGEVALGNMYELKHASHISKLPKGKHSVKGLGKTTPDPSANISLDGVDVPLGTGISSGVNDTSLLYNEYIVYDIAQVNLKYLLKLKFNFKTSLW
Target sequence in this assay (Q96SW2 whole entry partner): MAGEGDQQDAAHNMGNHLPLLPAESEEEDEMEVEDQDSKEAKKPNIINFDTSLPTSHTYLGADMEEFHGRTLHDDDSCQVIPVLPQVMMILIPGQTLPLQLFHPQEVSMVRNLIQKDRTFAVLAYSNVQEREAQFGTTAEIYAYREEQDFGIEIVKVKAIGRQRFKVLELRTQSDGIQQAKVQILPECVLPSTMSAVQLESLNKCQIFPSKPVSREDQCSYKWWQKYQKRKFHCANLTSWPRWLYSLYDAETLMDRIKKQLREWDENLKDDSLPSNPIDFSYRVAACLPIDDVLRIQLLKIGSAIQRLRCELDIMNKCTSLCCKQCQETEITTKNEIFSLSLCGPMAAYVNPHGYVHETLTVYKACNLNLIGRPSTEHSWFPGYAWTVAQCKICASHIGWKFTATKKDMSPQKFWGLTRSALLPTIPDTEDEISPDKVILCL
For data set [13], the system named is MDA-MB-231. The experiment in a line: Antiproliferative activity against human MDA-MB-231 cells assessed as reduction in cell viability at 10 uM after 24 hrs by CCK8 assay relative to control. It is filed as functional.
The subject of data set [14] is MDA-MB-231. Nature of the data set: Antiproliferative activity against human MDA-MB-231 cells assessed as reduction in cell viability at 1 uM after 24 hrs by CCK8 assay relative to control. It is filed as functional.
Data set [15] has as its target T1, Protein cereblon/Poly [ADP-ribose] polymerase 1. The experiment in a line: PROTAC activity at CRBN/PARP1 in human MDA-MB-231 cells assessed as […]. It is filed as cell-based.
Target sequence in this assay (P09874 whole entry): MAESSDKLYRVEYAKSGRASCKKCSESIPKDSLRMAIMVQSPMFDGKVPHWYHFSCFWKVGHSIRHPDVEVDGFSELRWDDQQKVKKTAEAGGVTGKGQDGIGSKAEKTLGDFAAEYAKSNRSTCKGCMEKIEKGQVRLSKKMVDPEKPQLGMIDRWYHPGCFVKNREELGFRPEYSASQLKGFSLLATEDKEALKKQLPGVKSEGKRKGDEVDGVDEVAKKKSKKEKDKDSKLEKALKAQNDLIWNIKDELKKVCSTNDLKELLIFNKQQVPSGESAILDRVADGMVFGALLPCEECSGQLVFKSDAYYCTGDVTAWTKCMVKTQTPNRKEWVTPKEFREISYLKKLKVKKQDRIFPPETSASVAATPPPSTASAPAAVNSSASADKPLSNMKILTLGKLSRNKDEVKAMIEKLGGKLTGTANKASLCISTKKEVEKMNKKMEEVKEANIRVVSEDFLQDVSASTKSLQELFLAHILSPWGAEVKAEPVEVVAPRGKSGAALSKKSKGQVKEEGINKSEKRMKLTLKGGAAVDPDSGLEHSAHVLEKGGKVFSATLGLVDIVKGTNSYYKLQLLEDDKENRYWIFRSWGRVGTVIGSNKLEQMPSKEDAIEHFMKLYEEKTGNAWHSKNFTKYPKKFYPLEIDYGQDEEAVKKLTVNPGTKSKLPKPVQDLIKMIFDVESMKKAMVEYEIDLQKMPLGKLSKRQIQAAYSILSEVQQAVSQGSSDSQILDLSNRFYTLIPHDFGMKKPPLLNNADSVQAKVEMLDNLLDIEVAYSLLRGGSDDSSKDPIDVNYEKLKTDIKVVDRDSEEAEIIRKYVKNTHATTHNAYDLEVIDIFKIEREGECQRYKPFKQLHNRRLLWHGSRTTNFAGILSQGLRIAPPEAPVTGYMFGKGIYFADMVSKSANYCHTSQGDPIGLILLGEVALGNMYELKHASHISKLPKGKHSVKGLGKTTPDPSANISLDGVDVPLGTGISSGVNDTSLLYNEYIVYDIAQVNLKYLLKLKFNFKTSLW
Target sequence in this assay (Q96SW2 whole entry): as the sequence (Q96SW2 whole entry partner) above
In data set [16] the test system is MDA-MB-231. The experiment in a line: Antiproliferative activity against human MDA-MB-231 cells assessed as reduction in cell viability after 24 hrs by CCK8 assay. Format: functional, cell-based. The note with it: MDA-MB-231, 24 h.
Data set [17] relates to MDA-MB-231. The experiment in a line: Antitumor activity against human MDA-MB-231 cells xenografted in mouse assessed as tumor growth inhibition at 40 mg/kg, po relative to control. It is filed as functional. Conditions: read-out: TGI. A general note: In xenograft studies the graft and the host belong to different species.
Data set [18] has as its system SK-OV-3. The experiment in a line: Antiproliferative activity against human SK-OV-3 cells assessed as reduction in cell growth. Format: functional, cell-based.
In data set [19] the test system is A2780. The experiment in a line: Antiproliferative activity against human A2780 cells assessed as reduction in cell growth. It is filed as functional, cell-based.
Data set [20] concerns MCF7. The experiment in a line: Antiproliferative activity against human MCF7 cells assessed as reduction in cell growth. It is filed as functional, cell-based.
Data set [21] deals with MDA-MB-231. Nature of the data set: Antiproliferative activity against human MDA-MB-231 cells assessed as reduction in cell growth. Format: functional, cell-based.
For data set [22], the system named is HCT-116. Nature of the data set: Antiproliferative activity against human HCT-116 cells assessed as reduction in cell growth. It is filed as functional, cell-based.
Data set [23] has as its system SK-OV-3. The experiment in a line: Inhibition of colony formation in human SK-OV-3 cells at 10 uM by crystal violet staining assay. Format: functional.

Sequence of Poly [ADP-ribose] polymerase 1 (P09874 whole entry): as the sequence (P09874 whole entry) above

What is called IC50 is the concentration at which inhibition is half-maximal. On to `Cc1cc(C)n(S(=O)(=O)c2ccc3[nH]c(=O)c(=O)[nH]c3c2)n1`, for which the IC50 turned out to be 0.0044 µM in [1] and 2.57 µM in data set [2]. Also, in [3], the IC50 at 48 h was determined as 81.7 µM.

For the compound `O=C(CCN1CCOCC1)Nc1ccc(-c2nc3cc(Cl)ccc3o2)cc1`, the IC50 in data set [4] is 0.07 µM; in [5] it was 6.14 µM; in data set [6], 6.05 µM.

Turning to `CC(=O)c1nnn(-c2ccc(Br)cc2)c1C`, the IC50 in [7] was 0.018 µM.

As to `O=C1CCN(Cc2cn(-c3ccccc3F)nn2)C2(CCCCC2)c2ccccc21`, the IC50 in data set [8] is 1.95 µM. Also, the Activity in [9] is 8%; in data set [10], 10.9%; in [11], 19%.

For the compound `NC(=O)c1cccc2cn(-c3ccc(C4CCCN(CCC5CCN(CCC6CCN(c7ccc8c(c7)C(=O)N(C7CCC(=O)NC7=O)C8=O)CC6)CC5)C4)cc3)nc12` (stereo not drawn), the Activity in [12] was 88%; in data set [13], 11.78%; in [14] it was 65.84%. Further, the DC50 in data set [15] stood at 0.0252 µM. Also, the IC50 in data set [16] stood at 1.04 µM. Besides, the inhibition in vivo at 40 mg/kg in data set [17] is 71.4%.

A word on the inhibition: it is the relative decrease from the control value, in per cent. A lower inhibition goes with a response near the control. For the compound `CCNC(=S)N/N=C\c1ccc(-c2nc3c(oc4ccccc43)c(=O)[nH]2)cc1`, the IC50 was 4.98 µM in data set [18]; 24.8 µM in data set [19]; 38.1 µM in data set [20]; 47.6 µM in data set [21]; 8.75 µM in data set [22]. The inhibition at 10 µM in [23] is 78.1%.
